Measured values from PubChem BioAssay AID248 (DTP/NCI, 2004).
Values joined by “and” are separate entries in the source; they are usually repeats but may differ in a detail not shown here. Equal values may be shown once. Inconclusive results and toxic doses are left out. Rule as the data show it: active = T/C of 150% or more; inactive = T/C below 125%.

Test system: L1210 leukemia ip in BDF1 mice, survival T/C
Test: NCI In Vivo Anticancer Drug Screen. Data for tumor model L1210 Leukemia (intraperitoneal) in B6D2F1 (BDF1) mice
Conditions: higher = longer survival
Procedure, shortened: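 Transplanted-tumor mice were given test agent; controls received vehicle only. Survival readings from the two groups were divided (treated over control).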

Measured: T/C

CN(Cc1cnc2nc(N)nc(N)c2n1)c1ccc(C(=O)N[C@@H](CCC(=O)O)C(=O)O)cc1
inactive: endpoint: mean survival time, dose: 0.02 mg/kg/injection, schedule: Q01DX Z (ip), vehicle: saline 94 % of control | endpoint: mean survival time, dose: 0.03 mg/kg/injection, schedule: Q#A X Z (ip), vehicle: saline 107 % of control | endpoint: mean survival time, dose: 0.08 mg/kg/injection, schedule: Q01DX009 (ip), vehicle: sodium bicarbonate 99 % of control and 108 % of control | endpoint: mean survival time, dose: 0.1 mg/kg/injection, schedule: Q03HX008 (ip), vehicle: sodium bicarbonate 105 % of control | endpoint: mean survival time, dose: 0.1 mg/kg/injection, schedule: Q## X008 (other), vehicle: sodium bicarbonate 105 % of control | endpoint: mean survival time, dose: 0.12 mg/kg/injection, schedule: Q01DX Z (ip), vehicle: saline 108 % of control | endpoint: mean survival time, dose: 0.13 mg/kg/injection, schedule: Q01DX Z (sc), vehicle: saline 110 % of control | endpoint: mean survival time, dose: 0.13 mg/kg/injection, schedule: Q03HX016 (ip), vehicle: other 107 % of control | endpoint: mean survival time, dose: 0.15 mg/kg/injection, schedule: Q03HX008 (ip), vehicle: sodium bicarbonate 109 % of control | endpoint: mean survival time, dose: 0.15 mg/kg/injection, schedule: Q## X008 (other), vehicle: sodium bicarbonate 109 % of control | endpoint: mean survival time, dose: 0.19 mg/kg/injection, schedule: Q01DX009 (ip), vehicle: sodium bicarbonate 102 % of control | endpoint: mean survival time, dose: 0.19 mg/kg/injection, schedule: Q## X Z (ip), vehicle: saline 102 % of control | endpoint: mean survival time, dose: 0.38 mg/kg/injection, schedule: Q## X Z (ip), vehicle: saline 111 % of control | endpoint: mean survival time, dose: 0.49 mg/kg/injection, schedule: Q03HX003 (ip), vehicle: other 108 % of control | endpoint: mean survival time, dose: 0.49 mg/kg/injection, schedule: Q03HX004 (ip), vehicle: other 104 % of control | endpoint: mean survival time, dose: 0.49 mg/kg/injection, schedule: Q03HX005 (ip), vehicle: other 107 % of control | endpoint: mean survival time, dose: 0.49 mg/kg/injection, schedule: Q03HX006 (ip), vehicle: other 110 % of control | endpoint: mean survival time, dose: 0.5 mg/kg/injection, schedule: Q01DX006 (iv), vehicle: saline 112 % of control | endpoint: mean survival time, dose: 0.5 mg/kg/injection, schedule: Q07DX003 (ip), vehicle: saline 107 % of control | endpoint: mean survival time, dose: 0.73 mg/kg/injection, schedule: Q01DX001 (ip), vehicle: other 94 % of control | endpoint: mean survival time, dose: 0.73 mg/kg/injection, schedule: Q03HX002 (ip), vehicle: other 104 % of control | endpoint: mean survival time, dose: 0.73 mg/kg/injection, schedule: Q03HX003 (ip), vehicle: other 102 % of control | endpoint: mean survival time, dose: 0.73 mg/kg/injection, schedule: Q03HX004 (ip), vehicle: other 107 % of control | endpoint: mean survival time, dose: 0.73 mg/kg/injection, schedule: Q03HX006 (ip), vehicle: other 109 % of control | endpoint: mean survival time, dose: 0.75 mg/kg/injection, schedule: Q## X Z (ip), vehicle: other 108 % of control | endpoint: mean survival time, dose: 0.9 mg/kg/injection, schedule: Q07DX003 (ip), vehicle: saline 102 % of control | endpoint: mean survival time, dose: 1.1 mg/kg/injection, schedule: Q01DX001 (ip), vehicle: other 95 % of control | endpoint: mean survival time, dose: 1.1 mg/kg/injection, schedule: Q03HX002 (ip), vehicle: other 112 % of control | endpoint: mean survival time, dose: 1.1 mg/kg/injection, schedule: Q03HX003 (ip), vehicle: other 107 % of control | endpoint: mean survival time, dose: 1.1 mg/kg/injection, schedule: Q03HX005 (ip), vehicle: other 109 % of control | endpoint: mean survival time, dose: 1.5 mg/kg/injection, schedule: Q01DX001 (ip), vehicle: water 109 % of control and 110 % of control | endpoint: mean survival time, dose: 1.62 mg/kg/injection, schedule: Q03HX002 (ip), vehicle: other 108 % of control | endpoint: mean survival time, dose: 1.62 mg/kg/injection, schedule: Q03HX003 (ip), vehicle: other 109 % of control | endpoint: mean survival time, dose: 1.8 mg/kg/injection, schedule: Q07DX003 (ip), vehicle: saline 107 % of control | endpoint: mean survival time, dose: 2.0 mg/kg/injection, schedule: Q01DX001 (ip), vehicle: saline 107 % of control | endpoint: mean survival time, dose: 2.25 mg/kg/injection, schedule: Q01DX001 (ip), vehicle: water 111 % of control | endpoint: mean survival time, dose: 2.25 mg/kg/injection, schedule: Q## X006 (ip), vehicle: other 108 % of control | endpoint: mean survival time, dose: 3.4 mg/kg/injection, schedule: Q01DX009 (ip), vehicle: sodium bicarbonate 96 % of control | endpoint: mean survival time, dose: 3.5 mg/kg/injection, schedule: Q07DX003 (ip), vehicle: saline 111 % of control | endpoint: mean survival time, dose: 4.0 mg/kg/injection, schedule: Q01DX009 (ip), vehicle: other 93 % of control | endpoint: mean survival time, dose: 4.0 mg/kg/injection, schedule: Q01DX009 (ip), vehicle: sodium bicarbonate 95 % of control | endpoint: mean survival time, dose: 4.0 mg/kg/injection, schedule: Q01DX Z (oral), vehicle: saline 109 % of control | endpoint: mean survival time, dose: 4.0 mg/kg/injection, schedule: Q01DX Z (sc), vehicle: saline 109 % of control | endpoint: mean survival time, dose: 4.0 mg/kg/injection, schedule: Q12HX007 (ip), vehicle: other 109 % of control | endpoint: mean survival time, dose: 4.0 mg/kg/injection, schedule: Q#A X Z (ip), vehicle: saline 112 % of control | endpoint: mean survival time, dose: 5.0 mg/kg/injection, schedule: Q01DX009 (ip), vehicle: sodium bicarbonate 105 % of control | endpoint: mean survival time, dose: 6.0 mg/kg/injection, schedule: Q12HX005 (ip), vehicle: other 104 % of control | endpoint: mean survival time, dose: 6.0 mg/kg/injection, schedule: Q12HX006 (ip), vehicle: other 102 % of control | endpoint: mean survival time, dose: 6.3 mg/kg/injection, schedule: Q01DX009 (ip), vehicle: saline 108 % of control | endpoint: mean survival time, dose: 7.2 mg/kg/injection, schedule: Q## X032 (ip), vehicle: water 102 % of control | endpoint: mean survival time, dose: 8.0 mg/kg/injection, schedule: Q01DX006 (ip), vehicle: other 110 % of control | endpoint: mean survival time, dose: 8.0 mg/kg/injection, schedule: Q01DX007 (ip), vehicle: other 111 % of control | endpoint: mean survival time, dose: 8.0 mg/kg/injection, schedule: Q01DX008 (ip), vehicle: other 100 % of control | endpoint: mean survival time, dose: 8.0 mg/kg/injection, schedule: Q01DX009 (oral), vehicle: other 107 % of control | endpoint: mean survival time, dose: 8.0 mg/kg/injection, schedule: Q01DX015 (ip), vehicle: other 102 % of control | endpoint: mean survival time, dose: 8.0 mg/kg/injection, schedule: Q01DX Z (oral), vehicle: saline 97 % of control | endpoint: mean survival time, dose: 9.0 mg/kg/injection, schedule: Q01DX005 (ip), vehicle: other 100 % of control | endpoint: mean survival time, dose: 9.0 mg/kg/injection, schedule: Q12HX004 (ip), vehicle: other 111 % of control | endpoint: mean survival time, dose: 9.0 mg/kg/injection, schedule: Q## X008 (ip), vehicle: other 102 % of control | endpoint: mean survival time, dose: 13.0 mg/kg/injection, schedule: Q01DX004 (ip), vehicle: other 101 % of control | endpoint: mean survival time, dose: 13.0 mg/kg/injection, schedule: Q01DX005 (ip), vehicle: other 102 % of control | endpoint: mean survival time, dose: 13.0 mg/kg/injection, schedule: Q03HX005 (ip), vehicle: other 100 % of control | endpoint: mean survival time, dose: 13.0 mg/kg/injection, schedule: Q12HX004 (ip), vehicle: other 94 % of control | endpoint: mean survival time, dose: 13.5 mg/kg/injection, schedule: Q## X008 (ip), vehicle: other 93 % of control | endpoint: mean survival time, dose: 16.0 mg/kg/injection, schedule: Q03HX008 (ip), vehicle: other 98 % of control | endpoint: mean survival time, dose: 20.0 mg/kg/injection, schedule: Q01DX003 (ip), vehicle: other 101 % of control | endpoint: mean survival time, dose: 20.0 mg/kg/injection, schedule: Q## X008 (ip), vehicle: other 102 % of control | endpoint: mean survival time, dose: 30.0 mg/kg/injection, schedule: Q01DX003 (ip), vehicle: other 102 % of control | endpoint: mean survival time, dose: 30.0 mg/kg/injection, schedule: Q04DX004 (ip), vehicle: other 96 % of control | endpoint: mean survival time, dose: 32.0 mg/kg/injection, schedule: Q01DX001 (sc), vehicle: other 112 % of control | endpoint: mean survival time, dose: 40.0 mg/kg/injection, schedule: Q04DX003 (ip), vehicle: sodium bicarbonate 95 % of control | endpoint: mean survival time, dose: 45.0 mg/kg/injection, schedule: Q01DX002 (ip), vehicle: other 109 % of control | endpoint: mean survival time, dose: 67.0 mg/kg/injection, schedule: Q01DX002 (ip), vehicle: other 98 % of control | endpoint: mean survival time, dose: 67.0 mg/kg/injection, schedule: Q12HX002 (ip), vehicle: other 100 % of control | endpoint: mean survival time, dose: 70.0 mg/kg/injection, schedule: Q04DX002 (ip), vehicle: sodium bicarbonate 99 % of control | endpoint: mean survival time, dose: 112.0 mg/kg/injection, schedule: Q07DX003 (ip), vehicle: saline 97 % of control | endpoint: mean survival time, dose: 128.0 mg/kg/injection, schedule: Q01DX001 (oral), vehicle: other 108 % of control | endpoint: mean survival time, dose: 150.0 mg/kg/injection, schedule: Q03HX002 (ip), vehicle: other 93 % of control | endpoint: mean survival time, dose: 200.0 mg/kg/injection, schedule: Q04DX002 (ip), vehicle: saline 111 % of control | endpoint: mean survival time, dose: 250.0 mg/kg/injection, schedule: Q01DX001 (ip), vehicle: water 112 % of control | endpoint: mean survival time, dose: 256.0 mg/kg/injection, schedule: Q01DX001 (oral), vehicle: other 97 % of control | endpoint: mean survival time, dose: 256.0 mg/kg/injection, schedule: Q01DX001 (sc), vehicle: other 98 % of control | endpoint: mean survival time, dose: 300.0 mg/kg/injection, schedule: Q01DX001 (ip), vehicle: water 105 % of control | endpoint: mean survival time, dose: 375.0 mg/kg/injection, schedule: Q01DX001 (ip), vehicle: water 101 % of control | endpoint: mean survival time, dose: 512.0 mg/kg/injection, schedule: Q01DX001 (oral), vehicle: other 111 % of control | endpoint: mean survival time, dose: 37.5 micrograms/kg/injection, schedule: Q01DX009 (ip), vehicle: saline 104 % of control and 110 % of control | endpoint: mean survival time, dose: 70.0 micrograms/kg/injection, schedule: Q01DX Z (ip), vehicle: carboxymethylcellulose (CMC) 97 % of control | endpoint: mean survival time, dose: 75.0 micrograms/kg/injection, schedule: Q01DX009 (ip), vehicle: saline 107 % of control and 110 % of control | endpoint: mean survival time, dose: 100.0 micrograms/kg/injection, schedule: Q01DX015 (ip), vehicle: other 105 % of control | endpoint: mean survival time, dose: 140.0 micrograms/kg/injection, schedule: Q01DX Z (ip), vehicle: carboxymethylcellulose (CMC) 110 % of control | endpoint: mean survival time, dose: 150.0 micrograms/kg/injection, schedule: Q01DX015 (ip), vehicle: other 108 % of control | endpoint: mean survival time, dose: 6000.0 micrograms/kg/injection, schedule: Q01DX009 (ip), vehicle: Klucel (hydroxypropylcellulose) (HPC) 100 % of control | endpoint: median survival time, dose: 5.0 mg/kg/injection, schedule: Q01DX009 (ip), vehicle: other 110 % of control | endpoint: median survival time, dose: 8.0 mg/kg/injection, schedule: Q01DX001 (ip), vehicle: sodium bicarbonate 111 % of control | endpoint: median survival time, dose: 32.0 mg/kg/injection, schedule: Q01DX001 (ip), vehicle: sodium bicarbonate 110 % of control
